ChEMBL document CHEMBL1131848, “8-aminoquinolines as anticoccidials - Part III” (Bioorg Med Chem Lett, 1999)
Converted amounts (≈) assume the structure as drawn.

Columns and labels:
Eimeria acervulina [1] = test: In vivo anti-coccidial activity against Eimeria acervulina (chick 7-day coccidiosis model); assay type: functional
Eimeria tenella [2] = test: In vivo anti-coccidial activity against Eimeria tenella (chick 7-day coccidiosis model); assay type: functional
Eimeria tenella [3] = test: In vitro anti-coccidial activity against chicken hepatocyte Eimeria tenella; assay type: functional, organism-based
Eimeria acervulina [4] = test: In vitro anti-coccidial activity against chicken hepatocyte Eimeria acervulina; assay type: functional, organism-based

SMILES	ED95 (Eimeria acervulina [1]) [p.p.m. in feed]	ED95 (Eimeria tenella [2]) [p.p.m. in feed]	IC50 (Eimeria tenella [3]) [µg/mL]	IC50 (Eimeria acervulina [4]) [µg/mL]
COc1cc(NCCCCCNC2CC[S+]([O-])CC2)c2ncccc2c1 (configuration not stated)	>25	>25	> 1	> 5
CCNCCCCCNc1cc(OC)cc2cccnc12	>50	6.25	0.2 (≈ 0.696 µM)	0.2 (≈ 0.696 µM)
COc1cc(NCCCCCNC2CC2)c2ncccc2c1	>12.5	>12.5	0.2 (≈ 0.668 µM)	0.2 (≈ 0.668 µM)
COc1cc(NCCCCCNCc2ccccc2)c2ncccc2c1	>25	>25	0.2 (≈ 0.572 µM)	0.2 (≈ 0.572 µM)
COc1cc(NCCCCCNC2CCCO2)c2ncccc2c1 (configuration not stated)	12.5	12.5	0.2 (≈ 0.607 µM)	1 (≈ 3.04 µM)
COc1cc(NCCCCCNC2CCOCC2)c2ncccc2c1	12.5	6.25	0.2 (≈ 0.582 µM)	0.2 (≈ 0.582 µM)
COc1cc(NCCCCCNC2CCSCC2)c2ncccc2c1	>50	>50	0.2 (≈ 0.556 µM)	1 (≈ 2.78 µM)
COc1cc(NCCCNC(C)C)c2ncccc2c1	>25	>25	0.2 (≈ 0.732 µM)	0.2 (≈ 0.732 µM)
COc1cc(NCc2ccc(NC(C)C)cc2)c2ncccc2c1	>12.5	>12.5	> 1	1 (≈ 3.11 µM)
COc1cc(NCCNC(C)C)c2ncccc2c1	>25	>25	> 1	1 (≈ 3.86 µM)
COc1cc(NCCCCCNC2CCCC2)c2ncccc2c1	>25	>25	0.2 (≈ 0.611 µM)	0.2 (≈ 0.611 µM)
COc1cc(NCCCCCN)c2ncccc2c1	100	100	> 1	1 (≈ 3.86 µM)
CCN(CC)CCC[C@H](C)Nc1cc(OC)cc2cccnc12	>50	>50	0.2 (≈ 0.634 µM)	> 1
COc1cc(NCCCCCNC(C)(C)C)c2ncccc2c1	>25	6.25	0.2 (≈ 0.634 µM)	0.2 (≈ 0.634 µM)
COc1cc(N[C@@H](C)CCCNC(C)C)c2ncccc2c1	>50	>50	> 1	1 (≈ 3.32 µM)
COc1cc(NCCCCNC(C)C)c2ncccc2c1	6.25	6.25	0.2 (≈ 0.696 µM)	0.2 (≈ 0.696 µM)
N#CC(c1ccc(Cl)cc1)c1c(Cl)cc(-n2ncc(=O)[nH]c2=O)cc1Cl (configuration not stated) [DICLAZURIL]	1	1	0.008 (≈ 0.0196 µM)	0.008 (≈ 0.0196 µM)
COc1cc(NCCCCCNC(C)C)c2ncccc2c1 [PENTAQUINE]	12.5	12.5	0.2 (≈ 0.663 µM)	0.2 (≈ 0.663 µM)
